# Data as given in PubChem BioAssay (NCI).
#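 Test compounds were applied to cells in 96-well plates for 48 hours at 5 doses. GI50 is the concentration that inhibits growth by half. TGI: total growth inhibition.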
# What was measured:
# Assay in all cases: NCI anticancer screen, dose series, 48 h
# OVCAR-3 ovarian = test system: OVCAR-3 ovarian
# ACHN renal = test system: ACHN renal
# HOP-62 NSCLC = test system: HOP-62 NSCLC
# U251 CNS = test system: U251 CNS
# SK-MEL-2 melanoma = test system: SK-MEL-2 melanoma
# NCI/ADR-RES ovarian = test system: NCI/ADR-RES ovarian
# SK-OV-3 ovarian = test system: SK-OV-3 ovarian
# NCI-H460 lung = test system: NCI-H460 lung
# NCI-H522 lung = test system: NCI-H522 lung
# HT29 colon = test system: HT29 colon
# OVCAR-8 ovarian = test system: OVCAR-8 ovarian
# SR leukemia = test system: SR leukemia
# RPMI-8226 leukemia = test system: RPMI-8226 leukemia
# MDA-MB-435 = test system: MDA-MB-435
# HOP-92 NSCLC = test system: HOP-92 NSCLC
# SF-268 CNS = test system: SF-268 CNS
# PC-3 prostate = test system: PC-3 prostate
# A549 NSCLC = test system: A549 NSCLC
# HCT-15 colon = test system: HCT-15 colon
# NCI-H226 lung = test system: NCI-H226 lung
# LOX IMVI melanoma = test system: LOX IMVI melanoma
# SNB-75 CNS = test system: SNB-75 CNS
# HCC-2998 colon = test system: HCC-2998 colon
# EKVX NSCLC = test system: EKVX NSCLC
# SW-620 colon = test system: SW-620 colon
# MDA-MB-231 breast = test system: MDA-MB-231 breast
# CAKI-1 renal = test system: CAKI-1 renal
# UACC-257 melanoma = test system: UACC-257 melanoma
# 786-0 renal = test system: 786-0 renal
# M14 melanoma = test system: M14 melanoma
# OVCAR-4 ovarian = test system: OVCAR-4 ovarian
# DU-145 prostate = test system: DU-145 prostate
# HS 578T breast = test system: HS 578T breast
# SK-MEL-5 melanoma = test system: SK-MEL-5 melanoma
# SNB-19 CNS = test system: SNB-19 CNS
# MALME-3M melanoma = test system: MALME-3M melanoma
# SF-539 CNS = test system: SF-539 CNS
# A498 renal = test system: A498 renal
# UO-31 renal = test system: UO-31 renal
# UACC-62 melanoma = test system: UACC-62 melanoma
# TK-10 renal = test system: TK-10 renal
# SK-MEL-28 melanoma = test system: SK-MEL-28 melanoma
# MOLT-4 leukemia = test system: MOLT-4 leukemia
# OVCAR-5 ovarian = test system: OVCAR-5 ovarian
# SN12C renal = test system: SN12C renal
# KM12 colon = test system: KM12 colon
# RXF 393 renal = test system: RXF 393 renal
# SF-295 CNS = test system: SF-295 CNS
# MCF7 breast = test system: MCF7 breast
# COLO 205 colon = test system: COLO 205 colon
# HCT-116 colon = test system: HCT-116 colon
# IGROV1 ovarian = test system: IGROV1 ovarian
# T-47D breast = test system: T-47D breast
# HL-60(TB) leukemia = test system: HL-60(TB) leukemia
# CCRF-CEM leukemia = test system: CCRF-CEM leukemia
# K-562 leukemia = test system: K-562 leukemia
# BT-549 breast = test system: BT-549 breast
compound,measurement,setting,value
CCOc1ccc([C@H]2C(C(=O)c3ccc(Cl)cc3)C3(N[C@@H]2c2ccccc2)C(=O)Nc2ccc(Br)cc23)cc1 (some centres undefined),GI50,OVCAR-3 ovarian,17.5 µM
same,TGI,OVCAR-3 ovarian,38 µM
same,GI50,ACHN renal,15 µM
same,TGI,ACHN renal,28.6 µM
same,GI50,HOP-62 NSCLC,14.3 µM
same,TGI,HOP-62 NSCLC,28 µM
same,GI50,U251 CNS,15 µM
same,TGI,U251 CNS,29.8 µM
same,GI50,SK-MEL-2 melanoma,14.1 µM
same,TGI,SK-MEL-2 melanoma,27.9 µM
same,GI50,NCI/ADR-RES ovarian,19.8 µM
same,TGI,NCI/ADR-RES ovarian,44.8 µM
same,GI50,SK-OV-3 ovarian,14.5 µM
same,TGI,SK-OV-3 ovarian,28.3 µM
same,GI50,NCI-H460 lung,16.7 µM
same,TGI,NCI-H460 lung,35.5 µM
same,GI50,NCI-H522 lung,14.2 µM
same,TGI,NCI-H522 lung,28.2 µM
same,GI50,HT29 colon,14.9 µM
same,TGI,HT29 colon,31 µM
same,GI50,OVCAR-8 ovarian,16.4 µM
same,TGI,OVCAR-8 ovarian,32 µM
same,GI50,SR leukemia,15.5 µM
same,TGI,SR leukemia,44 µM
same,GI50,RPMI-8226 leukemia,22 µM
same,TGI,RPMI-8226 leukemia,70.8 µM
same,GI50,MDA-MB-435,15.9 µM
same,TGI,MDA-MB-435,30.3 µM
same,GI50,HOP-92 NSCLC,7.75 µM
same,TGI,HOP-92 NSCLC,21.8 µM
same,GI50,SF-268 CNS,17.3 µM
same,TGI,SF-268 CNS,39.4 µM
same,GI50,PC-3 prostate,13.8 µM
same,TGI,PC-3 prostate,27.6 µM
same,GI50,A549 NSCLC,13.9 µM
same,TGI,A549 NSCLC,28.9 µM
same,GI50,HCT-15 colon,16.1 µM
same,TGI,HCT-15 colon,35.3 µM
same,GI50,NCI-H226 lung,15.1 µM
same,TGI,NCI-H226 lung,32.6 µM
same,GI50,LOX IMVI melanoma,15.7 µM
same,TGI,LOX IMVI melanoma,30.4 µM
same,GI50,SNB-75 CNS,11.3 µM
same,TGI,SNB-75 CNS,23.7 µM
same,GI50,HCC-2998 colon,15.7 µM
same,TGI,HCC-2998 colon,31 µM
same,GI50,EKVX NSCLC,15.9 µM
same,TGI,EKVX NSCLC,35.4 µM
same,GI50,SW-620 colon,18.5 µM
same,TGI,SW-620 colon,40.9 µM
same,GI50,MDA-MB-231 breast,15.8 µM
same,TGI,MDA-MB-231 breast,31.8 µM
same,GI50,CAKI-1 renal,13.1 µM
same,TGI,CAKI-1 renal,26.2 µM
same,GI50,UACC-257 melanoma,14.7 µM
same,TGI,UACC-257 melanoma,29 µM
same,GI50,786-0 renal,15.4 µM
same,TGI,786-0 renal,30.1 µM
same,GI50,M14 melanoma,15 µM
same,TGI,M14 melanoma,30.1 µM
same,GI50,OVCAR-4 ovarian,14.3 µM
same,TGI,OVCAR-4 ovarian,28.1 µM
same,GI50,DU-145 prostate,17.7 µM
same,TGI,DU-145 prostate,38 µM
same,GI50,HS 578T breast,17.9 µM
same,TGI,HS 578T breast,47.8 µM
same,GI50,SK-MEL-5 melanoma,18 µM
same,TGI,SK-MEL-5 melanoma,32.7 µM
same,GI50,SNB-19 CNS,15.2 µM
same,TGI,SNB-19 CNS,29.7 µM
same,GI50,MALME-3M melanoma,14.7 µM
same,TGI,MALME-3M melanoma,28.5 µM
same,GI50,SF-539 CNS,15.9 µM
same,TGI,SF-539 CNS,30.5 µM
same,GI50,A498 renal,14.3 µM
same,TGI,A498 renal,28.8 µM
same,GI50,UO-31 renal,12.9 µM
same,TGI,UO-31 renal,25.6 µM
same,GI50,UACC-62 melanoma,13.3 µM
same,TGI,UACC-62 melanoma,27.1 µM
same,GI50,TK-10 renal,13.7 µM
same,TGI,TK-10 renal,28.8 µM
same,GI50,SK-MEL-28 melanoma,16.1 µM
same,TGI,SK-MEL-28 melanoma,30.4 µM
same,GI50,MOLT-4 leukemia,18.2 µM
same,TGI,MOLT-4 leukemia,73.8 µM
same,GI50,OVCAR-5 ovarian,14.6 µM
same,TGI,OVCAR-5 ovarian,29.4 µM
same,GI50,SN12C renal,15.2 µM
same,TGI,SN12C renal,31.2 µM
same,GI50,KM12 colon,17.1 µM
same,TGI,KM12 colon,49.1 µM
same,GI50,RXF 393 renal,13.1 µM
same,TGI,RXF 393 renal,26.1 µM
same,GI50,SF-295 CNS,16.1 µM
same,TGI,SF-295 CNS,30.3 µM
same,GI50,MCF7 breast,14 µM
same,TGI,MCF7 breast,36.7 µM
same,GI50,COLO 205 colon,15 µM
same,TGI,COLO 205 colon,30.1 µM
same,GI50,HCT-116 colon,14.6 µM
same,TGI,HCT-116 colon,29.7 µM
same,GI50,IGROV1 ovarian,14.2 µM
same,TGI,IGROV1 ovarian,31.6 µM
same,GI50,T-47D breast,14.2 µM
same,TGI,T-47D breast,35.2 µM
same,GI50,HL-60(TB) leukemia,23.1 µM
same,TGI,HL-60(TB) leukemia,63.1 µM
same,GI50,CCRF-CEM leukemia,23.1 µM
same,TGI,CCRF-CEM leukemia,72 µM
same,GI50,K-562 leukemia,25.3 µM
same,TGI,K-562 leukemia,> 100 µM
same,GI50,BT-549 breast,15.6 µM
same,TGI,BT-549 breast,29.9 µM
